Assay results: ChEMBL document CHEMBL2321730, “Development of κ opioid receptor antagonists” (J Med Chem, 2013)
Where a SMILES comes first, the peptide text is derived from it. [ ]: non-standard residue; d: D form.

Assays:
[1] = target: Kappa-type opioid receptor (Rattus norvegicus, UniProt P34975); test: Displacement of [3H]diprenorphine from rat cloned KOR expressed in CHO cells after 90 mins by scintillation counting analysis
Mus musculus [2] = test: Antinociceptive activity in C57B1/6J mouse at 10 nmol, icv administered 80 mins prior to U50488 addition by warm water tail withdrawal assay; assay type: functional
[3] = target: T1, Kappa-type opioid receptor (Homo sapiens, UniProt P41145); test: Inhibition of dynorphin A (1-13) NH2 binding to KOR (unknown origin) by adenylyl cyclase assay; assay type: functional
Mus musculus [4] = test: Antinociceptive activity in icv dosed C57B1/6J mouse assessed as tail withdrawal latency measured in every 10 mins for 1 hr by warm water tail withdrawal assay; assay type: functional, organism-based
[5] = Displacement of DPDPE from DOR in guinea pig brain membrane fraction after 30 mins by scintillation counting analysis; assay type: cell membranes, Cavia porcellus
Mu-type opioid receptor = Mu-type opioid receptor (Homo sapiens, UniProt P35372); test: Antagonist activity at MOR (unknown origin) by [35S]GTPgammaS binding assay
[6] = target: T1, Kappa-type opioid receptor; test: Antagonist activity at KOR (unknown origin) by [35S]GTPgammaS binding assay
[7] = target: T1, Kappa-type opioid receptor; test: Binding affinity to KOR (unknown origin)
[8] = target: Delta-type opioid receptor (Homo sapiens, UniProt P41143); test: Antagonist activity at DOR (unknown origin) by [35S]GTPgammaS assay; assay type: functional
Rattus norvegicus [9] = test: In vivo receptor occupancy at DOR in po dosed Harlan Sprague-Dawley rat brain after 5.5 hrs by LC/MS/MS analysis; assay type: functional
Rattus norvegicus [10] = test: In vivo receptor occupancy at MOR in po dosed Harlan Sprague-Dawley rat brain after 5.5 hrs by LC/MS/MS analysis; assay type: functional

T1 sequence (P41145 whole entry): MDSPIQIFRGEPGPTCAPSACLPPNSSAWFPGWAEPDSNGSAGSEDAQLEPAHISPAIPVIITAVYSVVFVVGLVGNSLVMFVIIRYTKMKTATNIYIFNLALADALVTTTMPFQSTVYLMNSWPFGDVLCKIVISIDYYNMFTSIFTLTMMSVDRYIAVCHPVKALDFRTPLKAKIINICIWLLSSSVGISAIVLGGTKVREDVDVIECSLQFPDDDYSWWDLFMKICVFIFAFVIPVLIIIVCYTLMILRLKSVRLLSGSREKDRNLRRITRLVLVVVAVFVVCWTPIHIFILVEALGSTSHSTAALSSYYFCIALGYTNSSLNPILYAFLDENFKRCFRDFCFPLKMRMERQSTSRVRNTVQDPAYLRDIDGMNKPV
Kappa-type opioid receptor (Rattus norvegicus, UniProt P34975), sequence (P34975 whole entry): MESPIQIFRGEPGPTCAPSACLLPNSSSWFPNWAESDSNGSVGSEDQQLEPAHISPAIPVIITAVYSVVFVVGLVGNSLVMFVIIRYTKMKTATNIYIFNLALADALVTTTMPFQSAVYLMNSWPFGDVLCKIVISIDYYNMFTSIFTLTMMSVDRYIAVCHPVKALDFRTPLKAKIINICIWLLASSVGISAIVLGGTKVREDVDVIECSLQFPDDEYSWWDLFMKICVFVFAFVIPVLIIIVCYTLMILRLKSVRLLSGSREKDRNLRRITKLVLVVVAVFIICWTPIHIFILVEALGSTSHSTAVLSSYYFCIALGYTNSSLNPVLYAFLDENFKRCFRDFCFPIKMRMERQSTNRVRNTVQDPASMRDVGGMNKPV
Delta-type opioid receptor, sequence (P41143 whole entry): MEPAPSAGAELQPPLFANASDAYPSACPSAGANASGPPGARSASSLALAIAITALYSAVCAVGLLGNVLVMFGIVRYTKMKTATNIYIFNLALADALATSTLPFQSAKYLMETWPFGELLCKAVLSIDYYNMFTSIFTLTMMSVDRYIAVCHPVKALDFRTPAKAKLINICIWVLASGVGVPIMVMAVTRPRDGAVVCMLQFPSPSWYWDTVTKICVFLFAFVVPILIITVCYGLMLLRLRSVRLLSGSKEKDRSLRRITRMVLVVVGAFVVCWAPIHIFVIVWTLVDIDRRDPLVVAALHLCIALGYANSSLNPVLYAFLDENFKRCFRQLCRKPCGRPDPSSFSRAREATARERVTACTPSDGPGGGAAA
Mu-type opioid receptor, sequence (P35372 whole entry): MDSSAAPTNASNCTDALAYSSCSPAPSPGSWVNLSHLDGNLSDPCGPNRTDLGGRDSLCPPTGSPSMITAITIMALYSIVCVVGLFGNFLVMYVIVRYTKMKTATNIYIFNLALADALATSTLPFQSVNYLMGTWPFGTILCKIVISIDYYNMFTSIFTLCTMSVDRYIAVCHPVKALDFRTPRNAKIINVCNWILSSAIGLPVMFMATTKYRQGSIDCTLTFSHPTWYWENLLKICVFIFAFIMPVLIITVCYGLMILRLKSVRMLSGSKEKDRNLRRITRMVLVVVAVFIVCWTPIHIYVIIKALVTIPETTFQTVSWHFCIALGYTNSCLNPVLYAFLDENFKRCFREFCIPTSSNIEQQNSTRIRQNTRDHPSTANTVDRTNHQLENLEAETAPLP

O=C1N[C@H](Cc2c[nH]c3ccccc23)C(=O)N[C@@H](Cc2ccccc2)C(=O)N2CCC[C@@H]2C(=O)N[C@H]1Cc1ccccc1 (cyclo(F[dP]F[dW])) showed a Ki [1] of 30.6 nM and an Activity (Mus musculus [2]) of 10%.
Compound CC[C@H](C)[C@@H]1NC(=O)[C@H](CCCNC(=N)N)NC(=O)[C@@H](NC(=O)[C@H](Cc2ccccc2)NC(=O)CNC(=O)CNC(=O)[C@H](Cc2ccc(O)cc2)NCc2ccccc2)CC(=O)NC[C@@H](C(=O)N[C@@H](CCCNC(=N)N)C(=O)N2CCC[C@H]2C(=O)N[C@@H](CCCCN)C(N)=O)NC1=O has a Kb [3] of 84 nM.
With O=C1N[C@@H](Cc2ccccc2)C(=O)N2CCC[C@@H]2C(=O)N[C@@H](Cc2ccccc2)C(=O)N[C@H]1Cc1c[nH]c2ccccc12 (cyclo(FWF[dP])) the EC50 (Mus musculus [4]) was 3.71 nmol, the Ki [1] was 35.4 nM and the IC50 [5] was 2600 nM.
O=C(Nc1cccc(NC(=O)c2cccc(N3CCCCC3)c2)c1)c1cccc(OC2CCN(CC3CC3)CC2)c1 showed an IC50 (Mu-type opioid receptor) of over 30000 nM, an IC50 [6] of 77 nM and a Ki [7] of 0.5 nM. For the same compound, the IC50 [8] was over 30000 nM.
In the case of Cc1cc(C)cc([C@@H]2CCCN2Cc2ccc(Oc3ccc(C(N)=O)cc3F)cc2)c1 [ATICAPRANT], the ED50 (Rattus norvegicus [9]) is reported as over 30 mg/kg and the ED50 (Rattus norvegicus [10]) is reported as over 30 mg/kg.
